Assays:
GR = molecular target: T1, GR (Homo sapiens, UniProt P04150); test: In Vitro GR Luciferase Reporter Assay (antagonist mode, CHO-K1-GR-MMTV-Luc reporter cells); format: cell-based; settings: antagonist mode, 10 nM Dexamethasone
T1 construct: expressed in transfected cells; host or cells: CHO-K1
T1 sequence (P04150 1-777): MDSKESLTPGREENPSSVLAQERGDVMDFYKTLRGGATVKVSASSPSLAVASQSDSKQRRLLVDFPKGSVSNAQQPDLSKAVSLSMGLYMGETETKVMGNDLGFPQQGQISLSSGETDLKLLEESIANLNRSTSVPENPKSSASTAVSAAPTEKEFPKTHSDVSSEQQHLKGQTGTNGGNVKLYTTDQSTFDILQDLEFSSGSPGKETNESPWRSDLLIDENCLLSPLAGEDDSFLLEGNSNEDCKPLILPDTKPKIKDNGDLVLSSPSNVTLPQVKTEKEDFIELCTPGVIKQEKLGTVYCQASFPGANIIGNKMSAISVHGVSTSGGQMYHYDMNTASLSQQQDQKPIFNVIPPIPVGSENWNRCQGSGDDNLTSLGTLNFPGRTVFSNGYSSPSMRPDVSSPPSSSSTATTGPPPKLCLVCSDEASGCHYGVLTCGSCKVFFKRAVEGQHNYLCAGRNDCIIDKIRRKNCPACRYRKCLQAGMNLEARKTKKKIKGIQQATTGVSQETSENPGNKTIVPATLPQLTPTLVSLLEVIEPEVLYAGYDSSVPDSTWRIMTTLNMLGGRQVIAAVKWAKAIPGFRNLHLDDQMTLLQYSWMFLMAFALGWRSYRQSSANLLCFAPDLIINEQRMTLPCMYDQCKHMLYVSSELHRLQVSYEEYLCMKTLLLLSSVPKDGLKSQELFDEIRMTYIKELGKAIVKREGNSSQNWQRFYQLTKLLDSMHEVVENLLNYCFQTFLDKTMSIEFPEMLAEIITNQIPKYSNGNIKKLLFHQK
Outline: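 Antagonist mode: compounds (8 serial 1:5 dilutions) added to GR-MMTV-luciferase CHO-K1 reporter cells co-exposed to 10 nM dexamethasone final, in phenol red-free DMEM plus 10% CSS. After roughly 18-24 h at 37° C, OneGlo luminescence read and IC50 calculated.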

CYP2C8 = molecular target: T2, CYP2C8 (Homo sapiens, UniProt P10632); test: CYP Inhibition Assay (CYP2C8, human liver microsomes, paclitaxel substrate); format: in vitro ADME; settings: pH 7.4; pooled human liver microsomes 0.1 mg/mL, probe substrate paclitaxel
T2 construct: Pooled human microsomes were obtained from Sekisui XenoTech, KS; tissue Sekisui XenoTech, KS; host or cells: pooled human liver microsomes
T2 sequence (P10632 1-490): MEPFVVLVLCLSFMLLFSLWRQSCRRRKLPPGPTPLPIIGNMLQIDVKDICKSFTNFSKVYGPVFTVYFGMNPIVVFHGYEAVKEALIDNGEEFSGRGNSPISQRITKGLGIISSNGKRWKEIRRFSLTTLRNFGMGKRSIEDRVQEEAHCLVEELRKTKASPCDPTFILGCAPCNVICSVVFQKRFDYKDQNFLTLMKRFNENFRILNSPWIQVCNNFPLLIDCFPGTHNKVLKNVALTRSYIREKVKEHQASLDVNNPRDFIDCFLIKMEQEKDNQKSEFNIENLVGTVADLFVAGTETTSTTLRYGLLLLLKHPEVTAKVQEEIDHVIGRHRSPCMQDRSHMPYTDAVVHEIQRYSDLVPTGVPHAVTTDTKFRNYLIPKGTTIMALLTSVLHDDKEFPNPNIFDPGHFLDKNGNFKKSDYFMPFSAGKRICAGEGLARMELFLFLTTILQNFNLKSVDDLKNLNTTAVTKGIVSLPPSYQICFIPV
Outline: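 CYP2C8 activity read as 6α-hydroxypaclitaxel formation by LC-MS/MS, with % inhibition versus vehicle control. Reactions ran 5 min at 37° C, pH 7.4 phosphate buffer, 0.1 mg/mL pooled human liver microsomes, 1 mM NADPH, duplicate wells.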

| IC50 (GR) | inhibition at 5 min (CYP2C8) | Structure (SMILES) |
| --- | --- | --- |
| ≤ 100 nM | 25 to 50% | Cn1cnc(S(=O)(=O)N(C2CC2)[C@H]2CCC3=Cc4c(cnn4-c4ccc(F)cc4)C[C@]3(C(=O)c3ncc(C(F)(F)F)s3)C2)n1 [Example 305, N-cyclopropyl-N-((4aS,6S)-1-(4-fluorophenyl)-4a-(5-(trifluoromethyl)thiazole-2-carbonyl)-4,4a,5,6,7,8-hexahydro-1H-benzo[f]indazol-6-yl)-1-methyl-1H-1,2,4-triazole-3-sulfonamide] |
| ≤ 100 nM | ≤ 25% | Cn1cnc(S(=O)(=O)N(C2CC2)[C@H]2CCC3=Cc4c(cnn4-c4ccc(F)cc4)C[C@]3(C(=O)c3cc(C(F)(F)F)ccn3)C2)n1 [Example 306, N-cyclopropyl-N-((4aS,6S)-1-(4-fluorophenyl)-4a-(4-(trifluoromethyl)picolinoyl)-4,4a,5,6,7,8-hexahydro-1H-benzo[f]indazol-6-yl)-1-methyl-1H-1,2,4-triazole-3-sulfonamide] |

Source: patent US20210122730A1, “GLUCOCORTICOID RECEPTOR MODULATORS” (ORIC Pharmaceuticals, Inc., priority 2017, published 2021)
